Where “and” joins values, the source holds several entries; their conditions need not be identical. Identical values can stand only once. Entries after “also recorded” stand apart in the source; their conditions may differ. Like-named read-outs stand apart in the source and are kept apart here.

For series [1] the following is noted: cited from earlier work.
Series [2] can be described thus: In-vitro percutaneous absorption of retinoic acid and triamcinolone acetonide from two cocoa butter vehicles (Franz cells, 48 h). The note with it: for Penet (Total Penetration) / % Abs (% Absorbed) / Total Penetration / % Absorbed / total absorption: 48 h; for % Abs (% Absorbed) / % Absorbed / total absorption: percent of applied dose. The text has this:
The objective of this study was to measure the permeation of retinoic acid and triamcinolone acetonide through human skin in-vitro from two cocoa butter vehicles.
Two cocoa butter vehicles supplied by Hershey Foods Corporation were utilized: (1) pure cocoa butter and (2) partially hydrolyzed cocoa butter emulsion. Radioactive [11,12-^3 H] [retinoic acid (NET 920, Lot 2930-067, specific activity 1 mCi/ml) and [6,7-^3 H]-triamcinolone acetonide (NET 470, Lot 2904-170, specific activity 1 mCi/ml) were obtained from Dupont-New England Nuclear Corporation, Boston, Mass.
Each of the two cocoa butter vehicles was spiked separately with ^3 H-retinoic acid and ^3 H-Triamcinolone acetonide to give a total of four radioactive formulations for study. This was done by adding 25 μl (containing 25 μCi) of each tracer solution to approximately 1 gram of each vehicle and mixing with the tip of the dispensing micropipette. The pure cocoa butter vehicle was liquified by holding it under warm tap water prior to spiking. This was not done with the partially hydrolyzed cocoa butter emulsion. Neither formulation was used for three days after spiking to allow for diffusional mixing to take place. Final radioactive concentrations of each formulation were: […]
Human trunk skin without obvious signs of disease was used throughout. It was obtained within 24 hours of death, dermatomed to a thickness of approximately 0.25 mm, cryopreserved and sealed in water vapor-impermeableplastic bags. It was stored at -70° C. until the day of use then thawed by placing the bag in 37° C. water.
Skin from a single donor was cut into multiple sections large enough to fit on 0.8 cm^2 Franz cells. The dermal chamber was filled with isotonic saline, pH 7.4, into which a small magnetic stirring bar was placed. The epidermal chamber was left open to the ambient laboratory environment, approximately 22° C. and 40-60% RH. The cells were placed in a diffusion apparatus in which the dermal receptor solution was stirred magnetically at 600 RPM and its temperature maintained at 37° C.
To assure the integrity of each skin section, its permeability to tritiated water was determined before application of the test formulations. Following a brief (0.5-1 hour) equilibration period, 150 μl ^3 H2 O (specific activity 0.3 μCi/ml) was layered across the top of the skin section so that the entire exposed surface was covered. After 5 minutes the aqueous layer was removed and the surface of the skin carefully blotted dry. At t=0.5 hour the saline receptor phase was removed and analyzed for radioactive content by liquid scintillation counting. Skin specimens in which absorption of ^3 H2 O was less than 1.25 μl were considered acceptable.
Subsequently, each test formulation was applied at a target dose of 10 mg (cream) or 10 μl (butter). The cream formulation (partially hydrolyzed cocoa butter emulsion) was applied from the smooth, rounded-tip of a glass rod, the exact amount determined by weighing the rod before and after application. The butter formulation (pure cocoa butter) was first liquified under warm tap water, allowed to cool to room temperature, then applied with a 10 μl positive displacement micropipette prior to resolidifying. At 4, 8, 12, 24, 36 and 48 hours the receptor solution was removed in its entirety, replaced with fresh solution, and a 1 ml aliquot taken and assayed for radioactive content by liquid scintillation counting.
A 1 ml aliquot of each receptor sample containing ^3 H2 O, ^3 H-retinoic acid, or ^3 H-triamcinolone acetonide was placed in a 7 ml glass scintillation vial and gelled by the addition of 5 ml Opti-Fluor (Packard Instrument Co., Meriden, Conn.). These were counted in a Packard Tri-Carb Model 1900CA Liquid scintillation Analyzer equipped with internal standard and automatic quench correction.

[3] abbreviates: butter (pure cocoa butter), individual skin sections, listed as TRIAMINOLONE ACETONIDE
Setting [4] is: butter, average of three donors.
The mark [5] stands for this setting: cream (partially hydrolyzed cocoa butter emulsion), individual skin sections, listed as TRIAMINOLONE ACETONIDE

In the case of `CN(C)C=O` [Dimethylformamide], the side effects result in series [1] (topical use, in words) was “a sensation of burning and erythema on the skin”.
On to `C[S+](C)[O-]` [dimethyl sulfoxide], for which, in series [1] (topical use, in words), the side effects result was “a foul taste and body odor, burning and erythema on the skin; a reduction in the relucency of the lens cortex and tissue necrosis”.
`CNC(C)=O` [methylacetamide]: in series [1] (in vivo), the side effects entry was “a sensation of burning and erythema on the skin”.
Regarding `CC1(C)O[C@@H]2C[C@H]3[C@@H]4CCC5=CC(=O)C=C[C@]5(C)[C@@]4(F)[C@@H](O)C[C@]3(C)[C@]2(C(=O)CO)O1` [triamcinolone acetonide], the “rate of absorption profile / flux” value in series [2] (both cocoa butter formulations, in words) is listed as “absorption continues to increase at a slow rate; also recorded: relatively high flux rates”. For the same molecule, the “Penet (Total Penetration)” value in series [2] (setting [3]) was 524.71 and 252.43 and 268.51 and 390.54 and 1505.05 and 2037.47 and 2111.25 and 1993.70 and 1506.22 and 770.57 and 821.16 and 931.82; in series [2] (setting [5]), 254.48 and 668.59 and 249.45 and 118.36 and 2508.36 and 2312.05 and 2871.31 and 2499.51 and 947.51 and 935.57 and 1068.65 and 1271.22. In addition, the “% Abs (% Absorbed)” value is 5.24% and 2.52% and 2.86% and 3.90% and 15.04% and 20.36% and 21.10% and 19.92% and 15.05% and 7.70% and 8.21% and 9.31% in series [2] (setting [3]); 2.49% and 6.22% and 2.57% and 1.23% and 19.85% and 17.85% and 23.91% and 21.77% and 9.37% and 8.49% and 9.22% and 13.72% in series [2] (setting [5]). In addition, the “Rate of absorption, R1” value in series [2] (butter (pure cocoa butter), sample R1, mid-t 2 h, individual skin sections, listed as TRIAMINOLONE ACETONIDE) is 4.39 ng/cm^2 /hr and 1.60 ng/cm^2 /hr and 4.85 ng/cm^2 /hr and 2.94 ng/cm^2 /hr and 5.03 ng/cm^2 /hr and 5.86 ng/cm^2 /hr and 13.93 ng/cm^2 /hr and 14.30 ng/cm^2 /hr and 10.13 ng/cm^2 /hr and 6.97 ng/cm^2 /hr and 3.85 ng/cm^2 /hr and 4.31 ng/cm^2 /hr; in series [2] (butter, R1, mid-t 2 h, average of three donors), 6.52 ng/cm^2 /hr; in series [2] (cream (partially hydrolyzed cocoa butter emulsion), sample R1, mid-t 2 h, individual skin sections, listed as TRIAMINOLONE ACETONIDE), 3.04 ng/cm^2 /hr and 1.67 ng/cm^2 /hr and 5.26 ng/cm^2 /hr and 1.52 ng/cm^2 /hr and 18.29 ng/cm^2 /hr and 17.50 ng/cm^2 /hr and 18.71 ng/cm^2 /hr and 12.90 ng/cm^2 /hr and 4.30 ng/cm^2 /hr and 2.33 ng/cm^2 /hr and 15.97 ng/cm^2 /hr and 3.83 ng/cm^2 /hr. In addition, the “Rate of absorption, R3” value in series [2] (butter (pure cocoa butter), sample R3, mid-t 10 h, individual skin sections, listed as TRIAMINOLONE ACETONIDE) was 4.10 ng/cm^2 /hr and 1.98 ng/cm^2 /hr and 3.21 ng/cm^2 /hr and 1.85 ng/cm^2 /hr and 39.10 ng/cm^2 /hr and 54.60 ng/cm^2 /hr and 49.52 ng/cm^2 /hr and 41.58 ng/cm^2 /hr and 31.25 ng/cm^2 /hr and 11.42 ng/cm^2 /hr and 13.09 ng/cm^2 /hr and 17.61 ng/cm^2 /hr; in series [2] (butter, R3, mid-t 10 h, average of three donors), 22.44 ng/cm^2 /hr; in series [2] (cream (partially hydrolyzed cocoa butter emulsion), sample R3, mid-t 10 h, individual skin sections, listed as TRIAMINOLONE ACETONIDE), 3.36 ng/cm^2 /hr and 3.23 ng/cm^2 /hr and 5.64 ng/cm^2 /hr and 0.96 ng/cm^2 /hr and 59.17 ng/cm^2 /hr and 56.60 ng/cm^2 /hr and 68.40 ng/cm^2 /hr and 55.15 ng/cm^2 /hr and 21.00 ng/cm^2 /hr and 18.75 ng/cm^2 /hr and 20.37 ng/cm^2 /hr and 22.71 ng/cm^2 /hr. Moreover, the “Rate of absorption, R4” value is 10.64 ng/cm^2 /hr and 4.64 ng/cm^2 /hr and 5.65 ng/cm^2 /hr and 6.96 ng/cm^2 /hr and 41.81 ng/cm^2 /hr and 61.91 ng/cm^2 /hr and 60.58 ng/cm^2 /hr and 63.34 ng/cm^2 /hr and 42.50 ng/cm^2 /hr and 16.59 ng/cm^2 /hr and 19.25 ng/cm^2 /hr and 21.60 ng/cm^2 /hr in series [2] (butter (pure cocoa butter), sample R4, mid-t 18 h, individual skin sections, listed as TRIAMINOLONE ACETONIDE); 29.62 ng/cm^2 /hr in series [2] (butter, R4, mid-t 18 h, average of three donors); 5.74 ng/cm^2 /hr and 12.44 ng/cm^2 /hr and 6.13 ng/cm^2 /hr and 2.07 ng/cm^2 /hr and 63.18 ng/cm^2 /hr and 60.43 ng/cm^2 /hr and 79.96 ng/cm^2 /hr and 72.84 ng/cm^2 /hr and 26.40 ng/cm^2 /hr and 25.54 ng/cm^2 /hr and 27.04 ng/cm^2 /hr and 31.56 ng/cm^2 /hr in series [2] (cream (partially hydrolyzed cocoa butter emulsion), sample R4, mid-t 18 h, individual skin sections, listed as TRIAMINOLONE ACETONIDE). Moreover, the “Rate of absorption, R5” value in series [2] (butter (pure cocoa butter), sample R5, mid-t 30 h, individual skin sections, listed as TRIAMINOLONE ACETONIDE) was 16.77 ng/cm^2 /hr and 7.47 ng/cm^2 /hr and 7.89 ng/cm^2 /hr and 11.61 ng/cm^2 /hr and 44.77 ng/cm^2 /hr and 55.96 ng/cm^2 /hr and 68.48 ng/cm^2 /hr and 56.67 ng/cm^2 /hr and 44.03 ng/cm^2 /hr and 24.96 ng/cm^2 /hr and 28.20 ng/cm^2 /hr and 30.50 ng/cm^2 /hr; in series [2] (butter, R5, mid-t 30 h, average of three donors), 33.11 ng/cm^2 /hr; in series [2] (cream (partially hydrolyzed cocoa butter emulsion), sample R5, mid-t 30 h, individual skin sections, listed as TRIAMINOLONE ACETONIDE), 7.24 ng/cm^2 /hr and 17.67 ng/cm^2 /hr and 6.59 ng/cm^2 /hr and 3.75 ng/cm^2 /hr and 73.13 ng/cm^2 /hr and 69.96 ng/cm^2 /hr and 81.15 ng/cm^2 /hr and 70.51 ng/cm^2 /hr and 30.37 ng/cm^2 /hr and 30.85 ng/cm^2 /hr and 35.59 ng/cm^2 /hr and 41.22 ng/cm^2 /hr. Besides, the “Rate of absorption, R6” value in series [2] (butter (pure cocoa butter), sample R6, mid-t 42 h, individual skin sections, listed as TRIAMINOLONE ACETONIDE) is 23.72 ng/cm^2 /hr and 12.43 ng/cm^2 /hr and 12.16 ng/cm^2 /hr and 19.97 ng/cm^2 /hr and 48.08 ng/cm^2 /hr and 65.20 ng/cm^2 /hr and 60.71 ng/cm^2 /hr and 62.32 ng/cm^2 /hr and 49.91 ng/cm^2 /hr and 30.50 ng/cm^2 /hr and 30.09 ng/cm^2 /hr and 34.64 ng/cm^2 /hr; in series [2] (butter, R6, mid-t 42 h, average of three donors), 37.48 ng/cm^2 /hr; in series [2] (cream (partially hydrolyzed cocoa butter emulsion), sample R6, mid-t 42 h, individual skin sections, listed as TRIAMINOLONE ACETONIDE), 10.49 ng/cm^2 /hr and 37.33 ng/cm^2 /hr and 7.93 ng/cm^2 /hr and 5.35 ng/cm^2 /hr and 83.06 ng/cm^2 /hr and 70.37 ng/cm^2 /hr and 91.88 ng/cm^2 /hr and 81.89 ng/cm^2 /hr and 28.80 ng/cm^2 /hr and 30.03 ng/cm^2 /hr and 32.01 ng/cm^2 /hr and 46.16 ng/cm^2 /hr. Besides, the “Total Penetration” value amounted to 1094.29 in series [2] (setting [4]) and 1308.76 in series [2] (cream, average of three donors). Moreover, the “% Absorbed / total absorption” value in series [2] (setting [4]) turned out to be 10.9%; in series [2] (butter, average of three donors, listed as Triamcinalone), 10.93%; in series [2] (cream, average of three donors), 11.4%; in series [2] (cream, average of three donors, listed as Triamcinalone), 11.39%. Moreover, the “rate of absorption, cream versus butter” value in series [2] (comparison of both formulations, in words) is reported as “The cream formulation gives a slightly higher rate of absorption than the butter”. Besides, the “difference between partially hydrolyzed cocoa butter emulsion and pure cocoa butter as delivery vehicle” value in series [2] (in words) was “no appreciable difference”. Further, the average absorption result in series [2] (with cocoa butter and partially hydrolyzed cocoa butter emulsion (both vehicles)) is on record as “about 11%”.
